From US20080311126A1, “Antisense Oligonucleotides Directed to Ribonucleotide Reducatase R2 and Uses Thereof in Combination Therapies for the Treatment of Cancer” (Genesense Technologies, Inc, priority 2004, published 2008)
Entries after “also recorded” stand apart in the source; their conditions may differ.

Key:
[1] = tested on: Caki-1 human renal cancer cells; assay: Caki-1 renal tumour xenograft in SCID mice, SEQ ID NO:1 and chemotherapeutics; assay type: in vivo
Procedure: Caki-1 human renal cancer cells (1×10^7 cells in […] of PBS) were subcutanteously injected into the right flank of 6-7 weeks old female SCID mice. After the size of tumour reached an approximate volume of 200 mm^3, 7 days post tumour cell injection, SEQ ID NO:1 was administered by bolus infusion into the tail vein every other day at 10 mg/kg. Control animals received saline alone for the same period. The antitumour effect of SEQ ID NO:1 was further compared to that of two chemotherapeutic agents: 5-FU and vinblastine. 5-FU was administered intraperitoneally at days 7-13, 21-27 and 35-36 with a dose of 13 mg/kg/day, while vinblastin was administered intraperitoneally at days 7, 14, 21, 28 and 35 at a dose of 0.6 mg/kg/week. Antitumour effects of each of these compounds were further compared to those of SEQ ID NO:1 in combination with 5-FU or with vinblastin. The two chemotherapeutic agents were applied as described above, one hour after the treatments with SEQ ID NO:1 when combination treatments occurred on the same day. All treatments were stopped at day 36. A day after the last treatment, tumours were excised from the animals and their weights were measured.

[2] = tested on: DU145 human prostatic cancer cells; assay: DU145 prostatic tumour xenograft in SCID mice; assay type: in vivo
Procedure: In both experiments, DU145 human prostatic cancer cells (1×10^7 cells in 100 μl of PBS) were subcutaneously injected into the right flank of 6-7 weeks old male SCID mice. After the size of tumour reached an approximate volume of 50 mm^3, 13 FIG. 15A) or 11 (FIG. 15B) days post tumour cell injection, SEQ ID NO:1 was administered by bolus infusion into the tail vein every other day at 10 mg/kg 15 times (FIG. 15A) or 14 times (FIG. 15B), respectively. Control animals received saline alone for the same period. Antitumour effect of SEQ ID NO:1 was further compared to that of mitoxantrone (Novantrone®) alone or in combination. Mitoxantrone was administered intravenously once at the beginning of the treatments at a dose of 2 mg/kg (FIG. 15A) or once a week for four weeks at a reduced dose of 0.8 mg/kg (FIG. 15B). All treatments were stopped at day 42 (FIG. 15A) or 38 (FIG. 15B); respectively. A day after the last treatment, tumours were excised from the animals and their weights were measured.

Mouse Fibrosarcoma = assay: Tumour growth assay, mouse fibrosarcoma in C3H mice; assay type: in vivo
[3] = tested on: Human Breast Adenocarcinoma; assay: Tumour growth assay, human breast adenocarcinoma in mice; assay type: in vivo
[4] = tested on: Human Ovary Adenocarcinoma; assay: Tumour growth assay, human ovary adenocarcinoma in Balb/c Nu-Nu mice; assay type: in vivo
Hela S3 cells = assay: Relative colony forming efficiency, lipofectin +/- oligonucleotide 4 hours; assay type: cell-based, human; settings: Hela S3 cervix carcinoma cells; averages of 2-8 determinations
Summary of the method: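 HeLa S3 cells were exposed to phosphorothioate antisense oligonucleotide (0.2 μM unless stated) with lipofectin for 4 h, then grown 7–10 days in 10% FBS medium. Methylene blue-stained colonies were counted and expressed as percent survival relative to lipofectin-only controls.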

GGCTAAATCGCTCCACCAAG (chemistry not given here) [SEQ ID NO: 1, antisense oligonucleotide that hybridizes to the coding region of human ribonucleotide reductase R2 mRNA]
Tumour weight as % of saline control ([1]; Caki (renal), Mouse CD-1): 3.3% | antitumour effect (tumour weight) ([1]; SEQ ID NO:1 10 mg/kg every other day i.v., 5-FU 13 mg/kg/day i.p., vinblastin 0.6 mg/kg/week i.p.): significant delay of tumour growth; also recorded: superior to the inhibitory effects observed with each of two chemotherapeutic compounds | Tumour weight as % of saline control ([2]; DU145 (prostatic), Mouse SCID, second of two value columns (two independent experiments)): 41% | antitumour effect (tumour weight) ([2]; FIG. 15A, SEQ ID NO:1 10 mg/kg 15 times, mitoxantrone 2 mg/kg once): significant delay of tumour growth | Inhibition of tumour volume (Mouse Fibrosarcoma; C3H mice, Day 15 after tumour implantation): mice by approximately 80% on Day 15 | dose dependence of decrease in tumour weight (Mouse Fibrosarcoma; C3H mice, doses of 0.5 to 30 mg/kg): Dose-dependent decrease in tumour | Inhibition of tumour weight (Mouse Fibrosarcoma; Mouse Fibrosarcoma): approximately 80% | Inhibition of tumour weight ([3]; Day 31 after tumour implantation): approximately 80% on Day 31 after | Inhibition of tumour size ([3]; Human Breast Adenocarcinoma): approximately 80% | Inhibition of tumour size ([4]; Balb/c Nu-Nu mice, Days 19 to 25 after tumour implantation): approximately 35% in Balb/c Nu-Nu | Inhibition of tumour weight ([4]; Human Ovary Adenocarcinoma): of approximately 50% | Reduced relative colony forming efficiency, Hela S3 (% inhibition of colony forming ability) (Hela S3 cells): 67.92%
